This note sets out measurements from patent US4788206A, “Pentadieneamides” (Hoffmann-La Roche Inc., priority 1987, dated 1988).

The term IC50 denotes the concentration that inhibits the measured activity by half.

The subject of assay [1] is PAF-Induced Bronchoconstriction. Kind of assay: PAF Induced Bronchoconstriction Assay. It counts as in vivo, guinea pig. The conditions noted are these: for Percent Inhib. of PAF-Induced Bronchoconstriction, mg/Kg i.v.: i.v. (dose not given), 1 minute pretreatment, PAF 1.0 μg/kg i.v.; for inhibition in vivo at 50 mg/kg: Cavia porcellus, po, 2-hour pretreatment, read-out: Percent Inhib. of PAF-Induced Bronchoconstriction, 50 mg/Kg p.o. How it is done: PAF Induced Bronchoconstriction Assay
Male animals (Hartlet Strain 400-500 g) were anesthetized with urethane (2 g/kg. i.p.). Each animals' trachea was cannulated and the guinea pigs were repirated using a Harvard small animal rodent respirator (3.0 cc stroke volume, 40 breaths per min.). Tracheal pressure was recorded from a cannula inserted in the trachea and connected to a Statham Pressure Transducer.
The jugular vein was cannulated for administering compounds. Spontaneous breathing was arrested with succinylcholine (1.2 mg/kg. i.v.) administered 2 minutes prior to intravenous injection of platelet activating factor (PAF).
For, the intravenous testing, the guinea pig is given a 5-minute pretreatment with propranolol at a dose of 0.1 mg/kg intravenously. The test compound is administered with a 1 minute pretreatment prior to intravenous challenge with PAF. The animal is than challenged with a 1.0 μg/kg intravenous dose of PAF and the change is tracheal pressure is measured.
For the oral testing, the procedure includes a 2-hour pretreatment period with the test compound administered through an oral gavage tube. Propranolol or succinylcholine and PAF are administered intravenously, and the change in tracheal pressure measured.
The change is tracheal pressure is determined by subtracting the steady state baseline achieved after administration of succinylcholine from the peak bronchoconstriction seen after challenge with PAF. The mean is calculated for each test compound and compared to the mean of the control animals to give the percent inhibition of bronchoconstriction. The standard error is calcuated as the standard error of the mean.

The target of assay [2] is T1, PAF Binding, dog platelets (Canis lupus familiaris, UniProt A0A8I3NSH0).
T1 construct: Washed platelets were prepared by resuspending the platelet pellet once with PBS containing 1 mM EDTA; from tissue; host or cells: washed platelets from dog blood
T1 sequence (A0A8I3NSH0 1-343): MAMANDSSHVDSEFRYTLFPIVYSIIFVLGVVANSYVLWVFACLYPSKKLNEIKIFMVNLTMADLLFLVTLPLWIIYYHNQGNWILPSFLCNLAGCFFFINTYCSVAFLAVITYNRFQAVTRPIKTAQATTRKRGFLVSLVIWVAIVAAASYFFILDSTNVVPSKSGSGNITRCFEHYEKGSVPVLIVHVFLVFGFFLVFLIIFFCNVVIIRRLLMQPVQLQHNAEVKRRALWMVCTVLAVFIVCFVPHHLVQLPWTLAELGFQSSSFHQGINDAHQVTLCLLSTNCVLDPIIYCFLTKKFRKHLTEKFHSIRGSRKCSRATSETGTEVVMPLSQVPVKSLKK
The assay can be described thus: PAF Binding Assay (inhibition of 3H-PAF binding to washed dog platelets). Conditions: dog platelets, 3H-PAF, 10 minutes at room temperature; read-out: Inhib of PAF Binding IC50. How it is done: The binding assay was done in 400 μl polyethylene microcentrifuge tubes (Beckman) containing 50 μl of an oil mixture of 2 parts Siliconol AR200 (Serva): 1 part Silicone Fluid (Arthur H. Thomas). Buffer, standards, or analogs (150 μl total volume) were added to the tubes. Radiolabelled ^3 H-PAF (50 μl) was then added to the tubes. The reaction was started by the addition of 50 μl of dog platelets (2×10^7 platelets). The tubes were capped, inverted several times to mix, and incubated for 10 minutes at room temperature. The platelets were separated from the incubation mixture by centrifuging 1 minute in a Beckman Microfuge B centrifuge. The tip of the microfuge tube was cut off, and the platelets were washed out of the tip with 200 μl of 50% methanol (Burdick and Jackson). Aquasol (NEN, 10 ml) was added and the radioactivity in the samples was determined using an LS 8100 Beckman liquid scintillation counter linked to a Techtran tape recorder. Data was processed through an in-house computer system. Alternatively, radioactivity was determined using a Searle Mark III liquid scintillation counter linked to a Iso-Data microprocessor.
(b) Preparation of Platelets
Blood was collected from anesthesized or unanesthesized dogs into 50 ml plastic centrifuge tubes containing 3.8% sodium citrate as the anticoagulant (1 volume of citrate/9 volumes of blood). The red cells were removed by centrifugation for 15 minutes at 600 rpm (100-125 g) at room temperature. An aliquot of the supernatant platelet rich plasma (PRP) was saved for cell counting and the remainder was acidified to PH 6.5 with 0.15M citric acid. The platelet pellet was obtained after a 10 minute centrifugation at 2000 rpm (1000 g) at room temperature. Washed platelets were prepared by resuspending the platelet pellet once with PBS containing 1 mM EDTA, centrifuging as noted, and then resuspending the platelets in 0.1% BSA-PBS. An aliquot of the washed platelets was counted. Platelets used for binding assays were diluted to 2×10^7 platelets/assay tube (4×10^8 platelets/ml). Platelet counting was done using a Royco Cell-Crit 921.

Regarding `COc1ccc(C(=C/C=C/C(=O)NC(CCCc2cccnc2)C2CCCC2)c2ccc(OC)cc2)cc1` (racemic) [[R,S-(E)]-N-[1-cyclopentyl-4-(3-pyridinyl)butyl]-5,5-bis-(4-methoxyphenyl)-2,4-pentadienamide], the “Percent Inhib. of PAF-Induced Bronchoconstriction, mg/Kg i.v.” value in assay [1] is recorded as 19 ± 14%. Further, in assay [2], the IC50 was > 1000 nM.

As to `COc1ccc(C(=C/C=C/C(=O)Nc2ccc(Cc3cccnc3)cc2)c2ccc(OC)cc2)cc1` [(E)-5,5-bis(4-methoxyphenyl)-N-[4-(3pyridinylmethyl)phenyl]-2,4-pentadienamide], the “Percent Inhib. of PAF-Induced Bronchoconstriction, mg/Kg i.v.” value in assay [1] worked out at 3 ± 7%. In addition, the IC50 in assay [2] was 250 nM.

Turning to `COc1ccc(C(=C/C=C/C(=O)NCCCCCc2ccccn2)c2ccc(OC)cc2)cc1` [(E)-5,5-bis(4-methoxyphenyl)-N-[5-(2-pyridinyl)pentyl]-2,4-pentadienamide], the “Percent Inhib. of PAF-Induced Bronchoconstriction, mg/Kg i.v.” value in assay [1] was determined as 27 ± 6%. Further, the IC50 in assay [2] is 1000 nM.

On to `Cc1ccc(C(=C/C=C/C(=O)N[C@H](C)CCCc2cccnc2)c2ccc(C)cc2)cc1` [[R-(E)]-5,5-bis(4-methylphenyl)-N-[1-methyl-4-(3-pyridinyl)butyl]-2,4-pentadienamide], for which the “Percent Inhib. of PAF-Induced Bronchoconstriction, 50 mg/Kg p.o. (8 hr)” value in assay [1] (50 mg/Kg p.o., (8 hr)) is 14 ± 16%. In assay [1] (50 mg/Kg p.o.), the inhibition in vivo at 50 mg/kg was 91 ± 7%. In addition, the “Percent Inhib. of PAF-Induced Bronchoconstriction, mg/Kg i.v.” value in assay [1] worked out at 97 ± 3%. Moreover, in assay [2], the IC50 is 250 nM.

Regarding `COc1ccc(C(=C/C=C/C(=O)NCCCc2ccncc2)c2ccc(OC)cc2)cc1` [(E)-5,5-bis(4-methoxyphenyl)-N-[3-(4-pyridinyl)propyl]-2,4-pentadienamide], the “Percent Inhib. of PAF-Induced Bronchoconstriction, mg/Kg i.v.” value in assay [1] was determined as 8 ± 12%. Further, in assay [2], the IC50 was found to be 100 nM.

In the case of `COc1ccc(C(=C/C=C/C(=O)NC(C)CCCc2cccnc2C)c2ccc(OC)cc2)cc1` (racemic) [[R,S-(E)]-5,5-bis(4-methoxyphenyl)-N-[1-methyl-4-(2-methyl-3-pyridinyl)butyl]-2,4-pentadienamide], the “Percent Inhib. of PAF-Induced Bronchoconstriction, mg/Kg i.v.” value in assay [1] is reported as 47 ± 10%. Moreover, the IC50 in assay [2] is 30 nM.

`COc1ccc(C(=C/C=C/C(=O)N[C@H](C)CCCc2cccnc2)c2ccc(OC)c(OC)c2)cc1OC` [[R-(E)]-5,5-bis(3,4-dimethoxyphenyl)-N-[1-methyl-4-(3-pyridinyl)butyl]-2,4-pentadienamide]: the inhibition in vivo at 50 mg/kg in assay [1] (50 mg/Kg p.o.) came to 66 ± 19%. Besides, the “Percent Inhib. of PAF-Induced Bronchoconstriction, mg/Kg i.v.” value in assay [1] was 99 ± 1%. In assay [2], the 50% inhibitory concentration (IC50) was 50 nM.

For the compound `CCCC/C(=C\C=C\C(=O)N[C@H](C)CCCc1cccnc1)c1cccc(OC)c1` [[R-(E,E)]-5-(3-methoxyphenyl)-N-[1-methyl-4-(3-pyridinyl)butyl]-2,4-nonadienamide], the “Percent Inhib. of PAF-Induced Bronchoconstriction, mg/Kg i.v.” value in assay [1] worked out at 91 ± 5%. Moreover, the half-maximal inhibitory concentration (IC50) in assay [2] was 15 nM.

`COc1ccc(/C(=C\C=C\C(=O)NCCCCc2cccnc2)c2cccnc2)cc1` [(E,E)-5-(4-methoxyphenyl)-5-(3-pyridinyl)-N-[4-(3-pyridinyl)butyl]-2,4-pentadienamide]: the inhibition in vivo at 50 mg/kg in assay [1] (50 mg/Kg p.o.) is 85 ± 8%. Moreover, in assay [1], the “Percent Inhib. of PAF-Induced Bronchoconstriction, mg/Kg i.v.” value was 97 ± 0.6%. Further, the IC50 in assay [2] was found to be 25 nM.

`CCCCC/C(=C\C=C\C(=O)N[C@H](C)CCCc1cccnc1)c1ccc(F)cc1` [[R-(E,E)]-5-(4-fluorophenyl)-N-[1-methyl-4-(3-pyridinyl)butyl]-2,4-decadienamide]: the “Percent Inhib. of PAF-Induced Bronchoconstriction, mg/Kg i.v.” value in assay [1] was 95 ± 1%. In addition, the IC50 in assay [2] amounted to 40 nM.

For the compound `COc1ccc(/C(=C/C=C/C(=O)N[C@H](C)CCCc2cccnc2)C(C)C)cc1` [[R-(E,E)]-5-(4-methoxyphenyl)-6-methyl-N-[1-methyl-4-(3-pyridinyl)butyl]-2,4-heptadienamide], the “Percent Inhib. of PAF-Induced Bronchoconstriction, mg/Kg i.v.” value in assay [1] is on record as 38 ± 11%. Further, the IC50 in assay [2] is 30 nM.

`CCCCC/C(=C/C=C/C(=O)NCCCCc1cccnc1)c1ccc(OC)cc1` [(2E,4Z)-5-(4-methoxyphenyl)-N-[4-(3-pyridinyl)butyl]-2,4-decadienamide]: in assay [1], the “Percent Inhib. of PAF-Induced Bronchoconstriction, mg/Kg i.v.” value stood at 68 ± 11%. Further, in assay [2], the IC50 was 40 nM.
